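Cultured in 96-well plates, cells were exposed to test compound for 48 hours across five concentrations. At the GI50, growth is halved.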 Activity calls are given as the source filed them. No stated cut-off is given here; in the data, active = GI50 up to about 1.1 µM and inactive = higher.

Among the test systems are A498; ACHN; EKVX; HCT-116; HCT-15; HT-29; Hs-578T; IGROV-1; MDA-MB-435; MOLT-4; Malme-3M; NCI-H23; NCI-H460; OVCAR-4; PC-3; SF-268; SF-539; SK-MEL-2; SN12C; SR.
Assay in all cases: growth of human tumour cells (NCI), 48 h

Turning to `COc1cc(/C=C2\CC(C)C/C(=C\c3ccc(O)c(OC)c3)C2=O)ccc1O` (stereo not given), the GI50 with A498 is 2.52 µM (inactive); in the experiment on ACHN, 3.13 µM (inactive); in the experiment with EKVX, 13.8 µM (inactive); with HCT-116, 1.77 µM (inactive); with HCT-15, 1.73 µM; with HT-29, 6.37 µM (inactive). For the same compound, the GI50 in the experiment with Hs-578T was 2.05 µM (inactive); with IGROV-1 it was 2.4 µM (inactive); in the experiment on MDA-MB-435, 2.32 µM (inactive); in the experiment on MOLT-4 it was 2.29 µM (inactive); with Malme-3M, 1.9 µM (inactive); in the experiment on NCI-H23 it was 3.1 µM (inactive). In addition, the GI50 was 2.88 µM (inactive) in the experiment with NCI-H460; 2.52 µM (inactive) with OVCAR-4; 4 µM (inactive) with PC-3; 4.31 µM (inactive) with SF-268; 3.12 µM (inactive) with SF-539; 4.53 µM (inactive) in the experiment on SK-MEL-2. Also, the values for the GI50 in the experiment with SN12C and in the experiment on SR were 2.56 µM (inactive) and 2.86 µM (inactive), respectively.

Turning to `O=C(/C=C/c1ccsc1)c1ccc(Cl)s1`, the GI50 in the experiment with A498 is 34.5 µM (inactive); in the experiment with ACHN, > 100 µM (inactive); in the experiment with EKVX, > 100 µM (inactive); in the experiment on HCT-116 it was 25.4 µM (inactive); with HCT-15, 43.5 µM; in the experiment on HT-29, 34 µM (inactive). Further, the GI50 is > 100 µM (inactive) in the experiment with Hs-578T; > 100 µM (inactive) with IGROV-1; 30.6 µM (inactive) in the experiment on MDA-MB-435; 20.6 µM (inactive) in the experiment with MOLT-4; > 100 µM (inactive) with Malme-3M; 82.8 µM (inactive) in the experiment on NCI-H23. For the same compound, the GI50 with NCI-H460 was > 100 µM (inactive); with OVCAR-4, > 100 µM (inactive); in the experiment with PC-3, > 100 µM (inactive); in the experiment with SF-268, 67.5 µM (inactive); in the experiment on SF-539 it was > 100 µM (inactive); in the experiment with SK-MEL-2, > 100 µM (inactive). Further, the GI50 with SN12C is 75.3 µM (inactive); with SR, 24 µM (inactive).

Regarding `C=CCSc1nc2c(N)ncnc2n1C1OC(CO)C(O)C1O` (stereo not given), the GI50 in the experiment on A498 was > 100 µM (inactive); in the experiment with ACHN it was > 100 µM (inactive); with EKVX, > 100 µM (inactive); in the experiment with HCT-116, > 100 µM (inactive); in the experiment on HCT-15, above 100 µM; in the experiment on HT-29, > 100 µM (inactive). The GI50 in the experiment with Hs-578T, in the experiment with IGROV-1, in the experiment on MDA-MB-435, in the experiment with MOLT-4, with Malme-3M and with NCI-H23 was > 100 µM (inactive) each time. Besides, the GI50 with NCI-H460, in the experiment with OVCAR-4, in the experiment on PC-3, in the experiment on SF-268, in the experiment with SF-539 and with SK-MEL-2 was > 100 µM (inactive) each time. Besides, the GI50 with SN12C and with SR was > 100 µM (inactive) each time.

As for `CN(C)CC1CCC/C(=C\c2ccc(OC(=O)/C=C/c3ccc(Cl)cc3)cc2)C1=O` (stereo not given), the GI50 with A498 was 8.53 µM (inactive); in the experiment on ACHN, 2.43 µM (inactive); with EKVX, 7.14 µM (inactive); in the experiment with HCT-116, 3.56 µM (inactive); in the experiment on HCT-15 it was 2.01 µM; in the experiment with HT-29, 2.07 µM (inactive). For the same compound, the GI50 in the experiment on Hs-578T was 4.92 µM (inactive); with IGROV-1, 1.43 µM (inactive); with MDA-MB-435, 5.28 µM (inactive); in the experiment on MOLT-4 it was 1.05 µM (active); in the experiment with Malme-3M, 9.06 µM (inactive); with NCI-H23 it was 6.65 µM (inactive). For the same compound, the GI50 is 8.02 µM (inactive) with NCI-H460; 12.5 µM (inactive) in the experiment with OVCAR-4; 5.35 µM (inactive) in the experiment on PC-3; 4.09 µM (inactive) with SF-268; 2.57 µM (inactive) with SF-539; 9.82 µM (inactive) in the experiment with SK-MEL-2. Moreover, the GI50 in the experiment on SN12C was 3.92 µM (inactive); with SR, 1.09 µM (active).

Take `C[C@]12CC[C@H](O)C[C@@H]1CC[C@@H]1[C@@H]2CC[C@]2(C)[C@@H](c3cc(C(F)(F)F)[nH]n3)CC[C@@H]12`: the GI50 was 8.59 µM (inactive) with A498; 7.21 µM (inactive) with ACHN; 10.8 µM (inactive) with EKVX; 3.35 µM (inactive) in the experiment on HCT-116; 6.32 µM with HCT-15; 4.27 µM (inactive) with HT-29. For the same compound, the GI50 was > 35.6 µM (inactive) in the experiment with Hs-578T; 6.32 µM (inactive) in the experiment with IGROV-1; 10.1 µM (inactive) with MDA-MB-435; 3.95 µM (inactive) in the experiment on MOLT-4; > 37.3 µM (inactive) in the experiment with Malme-3M; 7.11 µM (inactive) with NCI-H23. Also, the GI50 in the experiment on NCI-H460 is 3.18 µM (inactive); in the experiment with OVCAR-4, 6.64 µM (inactive); with PC-3, 6.38 µM (inactive); in the experiment on SF-268, > 33 µM (inactive); in the experiment with SF-539 it was 7.36 µM (inactive); in the experiment on SK-MEL-2, 16.2 µM (inactive). Also, the figures for the GI50 with SN12C and with SR were 7.59 µM (inactive) and 3.87 µM (inactive), respectively.

`c1ccc2cc(NCNc3ccc4ccccc4c3)ccc2c1`: the GI50 was 19.9 µM (inactive) in the experiment on A498; 16.3 µM (inactive) in the experiment with ACHN; 14.6 µM (inactive) in the experiment with EKVX; 16.7 µM (inactive) with HCT-116; 15.6 µM in the experiment with HCT-15; 19 µM (inactive) in the experiment with HT-29. In addition, the GI50 was 37.8 µM (inactive) in the experiment on Hs-578T; 7.52 µM (inactive) in the experiment on IGROV-1; 1.78 µM (inactive) in the experiment on MDA-MB-435; 0.785 µM (active) with MOLT-4; 0.927 µM (active) in the experiment with Malme-3M; 12.2 µM (inactive) with NCI-H23. In addition, the GI50 is 13.4 µM (inactive) in the experiment with NCI-H460; 12.5 µM (inactive) in the experiment with OVCAR-4; 15.5 µM (inactive) with PC-3; 38.8 µM (inactive) in the experiment on SF-268; 29.3 µM (inactive) in the experiment on SF-539; 8.17 µM (inactive) in the experiment on SK-MEL-2. Moreover, the values for the GI50 in the experiment on SN12C and in the experiment on SR were 9.53 µM (inactive) and 2.42 µM (inactive), respectively.

As for `O=c1[nH]cc(/N=C/c2cc(Cl)ccc2O)c(=O)[nH]1`, the GI50 with A498 was > 100 µM (inactive); in the experiment with ACHN, 13.7 µM (inactive); in the experiment with EKVX, 32.1 µM (inactive); with HCT-116, 9.02 µM (inactive); in the experiment on HCT-15, 2.22 µM; in the experiment with HT-29, 31.3 µM (inactive). The GI50 is 47.2 µM (inactive) with Hs-578T; 7.83 µM (inactive) in the experiment on IGROV-1; 29.1 µM (inactive) with MDA-MB-435; 3.88 µM (inactive) in the experiment with MOLT-4; 25.1 µM (inactive) in the experiment with Malme-3M; 19 µM (inactive) in the experiment on NCI-H23. The GI50 was 48.8 µM (inactive) in the experiment on NCI-H460; 2.18 µM (inactive) in the experiment with OVCAR-4; 8.83 µM (inactive) in the experiment with PC-3; 5.62 µM (inactive) with SF-268; 1.89 µM (inactive) in the experiment with SF-539; 19.1 µM (inactive) in the experiment on SK-MEL-2. For the same compound, the GI50 with SN12C was 9.04 µM (inactive); in the experiment with SR, 1.85 µM (inactive).

Source of the values: ChEMBL document CHEMBL1201862, “PubChem BioAssay data set” (2004).
